The values that follow come from patent US10940150B2, “Thymine derivatives and quinazoline-dione derivatives for the inhibition of HSP27” (TECHNISCHE UNIVERSITAET DRESDEN, priority 2014, dated 2021).

Test [1] concerns the target T1, HSP27 (Homo sapiens, UniProt P04792). The experiment in a line: SpeedScreen gel filtration binding test. The following applies: PD SpinTraps G-25, detection by mass spectroscopy. The text has this: For the experimental validation of low-molecular-weight compounds which act as potential HSP27 inhibitors according to the in silico prediction, a method based on gel filtration was employed. The method for detecting molecular bonds using gel filtration was described in 2004 as “SpeedScreen” [Muckenschnabel et al., 2004] and was adapted to meet the requirements of the invention. […] For the separation, PD SpinTraps G-25 from GE Healthcare were used. During the 2-minute centrifugation at 800×g (according to operating instructions), these columns allow molecules with a molecular weight of greater than or equal to 5000 g/mol to pass through, while smaller molecules are retained in the matrix. The target protein HSP27 has a molecular weight of 27000 g/mol and therefore passes through the matrix. […] Non-bound low-molecular-weight compounds are retained by the matrix. Molecules that have passed through the matrix can then be detected by mass spectroscopy. This enables “binders” to be differentiated from “non-binders”. For the experimental validation of low-molecular-weight compounds which act as potential HSP27 inhibitors according to the in silico prediction, a method based on gel filtration was employed. […] Molecules that have passed through the matrix can then be detected by mass spectroscopy. […]

In test [2] the target is T1, HSP27. The test can be described thus: Spectrophotometric protein aggregation assay (citrate synthase, HSP27 chaperone function). To be noted: 750 μmol/L; 43° C., 500 nm, 1.44 μmol/L CS, 481 nmol/L HSP27. In kind it is biochemical. The method, then:
FIG. 1: a spectrophotometric protein aggregation assay at 43° C., a wavelength of 500 nm and a concentrations of the proteins: 1.44 μmol/L citrate synthase (CS), 481 nmol/L HSP27 (HSP) in a 40 mmol/L HEPES buffer (pH 7.4) during treatment with 14 or 28 μmol/L 2-(3-trichlorovinylphenylamino)-1,9-dihydropurin-6-one (CS+HSP+test substance no. 2), with 750 μmol/L BVDU (CS+HSP+BVDU) and without (CS+HSP; reference);
To measure the efficacy of the purine derivatives according to the invention, robust experiments for the chaperone function of the HSP27 protein were performed:
A known client protein (=substrate on which HSP27 acts as a chaperone) of HSP27 is citrate synthase. Citrate synthase is denatured when the temperature increases to 43° C. This heat denaturation is prevented or delayed by the presence of HSP27 [Jakob U, 1993]. By adding the novel active ingredients, their efficacy can thus be measured through the inhibition of the HSP27 chaperone function.
To determine the activity (i.e. the effect on the aggregation behaviour of the citrate synthase (CS) after thermal incubation) of 2-(3-trichlorovinylphenylamino)-1,9-dihydropurin-6-one in comparison to BVDU, four different batches containing 1.44 μmol/L CS, 481 nmol/L HSP27 (HSP) in a 40 mmol/L HEPES buffer (pH 7.4) were prepared and BVDU (750 μmol/L) or various concentrations of 2-(3-trichlorovinylphenylamino)-1,9-dihydropurin-6-one (14 μmol/L; 28 μmol/L) were added. The samples were then incubated at 43° C. and the aggregation behaviour of the CS was […] in a spectrometer (PerkinElmer LS55, PerkinElmer Inc.) at a wavelength of 500 nm.
It can be seen from FIG. 1 that the protein citrate synthase (graph CS alone) is denatured by increasing the temperature to 43° C. and forms aggregates. The aggregation is measured in the spectrometer at 500 nm (light scattering by protein aggregates). The presence of HSP27 (HSP) counteracts the aggregation (cf. graph, CS+HSP). Since the addition of the test substances (BVDU and 2-(3-trichlorovinylphenylamino)-1,9-dihydropurin-6-one) inhibits the chaperone function of HSP27, the activity of the respective test substance can be determined by measuring the aggregation behaviour of the CS.

A further test deals with RPMI-8226 cells. The test can be described thus: Development of resistance to bortezomib in RPMI-8226 cells. In kind it is cell-based.

T1 sequence (P04792 whole entry): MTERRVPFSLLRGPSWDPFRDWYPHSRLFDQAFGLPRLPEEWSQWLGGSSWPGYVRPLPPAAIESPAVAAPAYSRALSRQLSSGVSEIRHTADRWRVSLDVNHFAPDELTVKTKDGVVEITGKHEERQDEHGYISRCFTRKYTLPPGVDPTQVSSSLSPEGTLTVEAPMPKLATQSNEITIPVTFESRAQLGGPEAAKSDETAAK

In the case of `CC(=O)c1ccc2c(c1)N(CCCN(C)C)c1ccccc1S2` [Acepromazine], the “SpeedScreen: passage through Sephadex G-25 matrix bound to HSP27 (binder / non-binder)” value at HSP27 [1] is recorded as “tested positively”.

`O=c1[nH]c(=O)n([C@H]2C[C@H](O)[C@@H](CO)O2)cc1/C=C/Br` [BVDU, (E)-5-(2-bromovinyl)-2′-deoxyuridine]: the “effect on chaperone function of HSP27 (CS aggregation)” value at HSP27 [2] is listed as “partially cancels the chaperone function of HSP27”. In addition, the final cell count with RPMI-8226 cells (bortezomib 0.075-0.275 ng/ml + 30 μmol/L BVDU (FIG. 8a), without HSP27 inhibitor 510,000 cells/ml) is given as 340,000 cells/ml; in the test on RPMI-8226 cells (bortezomib 0.1-0.3 ng/ml + 30 μM/L BVDU (FIG. 6a), without HSP27 inhibitor 950,000 cells/ml), 290,000 cells/ml; in the test with RPMI-8226 cells (bortezomib 0.1-0.3 ng/ml + 30 μmol/L BVDU (FIG. 7a), without HSP27 inhibitor 950,000 cells/ml), 290,000 cells/ml.
